ChEMBL document CHEMBL3301555, “MMV Malaria Box screening in pLDH viability assay against Plasmodium falciparum gametocytes”

Tests used:
Plasmodium falciparum [1] = assay: (§1) MMV: Measure of pLDH activity as indication of parasite viability. Gametocytogenesis of 3D7 Plasmodium falciparum strain was induced in vitro and asexual parasites were depleted with N-acetylglucosamine. Gametocytes were treated with dihydroartemisinin, epoxomicin, methylene blue, primaquine, puromycin or chloroquine in 96-well plates and the pLDH activity was evaluated using a modified Makler protocol. Mosquito infectivity was measured by the standard membrane feeding assay.; format: functional; design: concentration or dose not given beside the values
Plasmodium falciparum [2] = assay: as §1, with “assay. The IC50 value was extrapolated as the concentration that induced a 50% inhibition of gametocyte viability.” for “assay.”; format: functional, organism-based

Row | SMILES | Growth Inhibition (Plasmodium falciparum [1]) [%] | IC50 (Plasmodium falciparum [2]) [nM]
1 | CN1CCN(c2ccc(Nc3c4ccccc4nc4ccccc34)cc2)CC1 | 62.7432 | 732
2 | O=C(Nc1ccc(Cl)c(Cl)c1)Nc1ccc(Cl)c(Cl)c1 | 10.3704 | –
3 | COc1ccc(Nc2nc(N/N=C/c3ccc(O)cc3)nc(Nc3ccc([N+](=O)[O-])cc3)n2)cc1 | 24.1364 | –
4 | CN(C)CCCNc1c2ccccc2nc2ccccc12 | 9.2618 | 3140
5 | N=c1n(CCN2CCCCC2)c2ccccc2n1CC(=O)c1ccc(Cl)c(Cl)c1 | 13.8938 | –
6 | Nc1nc(Nc2cccc(F)c2)nc2ccccc12 | 18.202 | –
7 | COc1ccc(/C=C2/SC(=Nc3ccccc3)NC2=O)cc1 | 42.24 | –
8 | c1ccc(/C2=N/c3ccccc3/N=C(/c3ccccc3)c3ccccc32)cc1 | 14.1312 | –
9 | COc1ccc(-c2nc(N3CCN(C(=O)C4CCCCC4)CC3)c3c4c(sc3n2)CCCC4)cc1 | -0.9006 | –
10 | O=C(NC1CCN(Cc2ccccc2)CC1)c1cc2nc(-c3ccc(Cl)s3)cc(C(F)(F)F)n2n1 | 6.5116 | –
11 | Cc1sc(NC(=O)c2ccccc2)c(C(c2cccs2)N2CCN(c3ccccc3)CC2)c1C (stereo unspecified) | 0.692 | –
12 | Cc1sc(NC(=O)c2ccco2)c(C(c2cccnc2)N2CCC(Cc3ccccc3)CC2)c1C (stereo unspecified) | 4.6056 | –
13 | CCOC(=O)c1c(C)n(-c2ccccc2)c2ccc(OC(=O)c3cc(OC)c(OC)c(OC)c3)cc12 | -1.486 | –
14 | COc1cc(C(=O)Nc2nc3c(cc4c5c(cccc53)CC4)s2)cc(OC)c1OC | 2.6754 | –
15 | COc1ccc(CCN2C(=O)c3[nH]nc(-c4cc(Cl)c(C)cc4O)c3C2c2ccccc2F)cc1 (stereo unspecified) | 16.338 | –
16 | N#Cc1nc(Cc2cccc3ccccc23)oc1N1CCN(C(c2ccccc2)c2ccccc2)CC1 | -13.1388 | –
17 | O=C(NNc1cc(N2CCCC2)nc(N2CCCC2)n1)c1ccccc1 | 2.419 | –
18 | COC(=O)c1ccc(Cl)c2c1C1C=CCC1C(c1cccc3ccccc13)N2 (stereo unspecified) | -3.8852 | –
19 | COc1ccc(C2c3ccc4ccccc4c3Oc3ncn(CCCn4ccnc4)c(=N)c32)cc1OC (stereo unspecified) | 22.0606 | –
20 | CN(N=O)C1=C(NC2CCCCC2)C(=O)c2ccccc2C1=O | 32.2 | –
21 | O=C(CCc1ccccc1)c1ccccc1OCC(O)CN1CCCCC1 (stereo unspecified) | 24.7266 | –
22 | Cc1ccc(Nc2nc(-c3ccccn3)cs2)cc1 | 62.3104 | 1380
23 | OC1=C2C(=Nc3ccccc3SC2c2ccccc2)c2ccccc21 (stereo unspecified) | 34.196 | –
24 | Cl.N=c1n(CCN2CCCCC2)c2ccccc2n1CC(O)c1cccc(Br)c1 (stereo unspecified) | 59.1366 | 3930

Row | SMILES | Growth Inhibition (Plasmodium falciparum [1]) [%] | IC50 (Plasmodium falciparum [2]) [nM]
25 | COc1cc(C(=O)Nc2ccc(-c3nc4ccccc4[nH]3)cc2)cc(OC)c1OC | 13.7592 | –
26 | CCOc1ccc(N2C(N)=NC(N)=NC2(C)C)cc1.Cl | -4.3826 | –
27 | COc1cccc(Nc2nc(N)c3ccccc3n2)c1.Cl | 17.598 | –
28 | Cc1ccc(C(=O)c2oc3ccc4c(C)cc(=O)oc4c3c2C)cc1 | 1.1304 | –
29 | COc1ccc(CN2CCCC(C(=O)c3ccc(C(F)(F)F)cc3)C2)c(O)c1 (stereo unspecified) | 43.708 | –
30 | COc1cccc(NC(=O)[C@H](C(C)C)n2c(=O)[nH]c3ccccc3c2=O)c1 | 63.4258 | 2750
31 | CCCCCCc1cc2cc(-c3csc(C=Cc4ccccc4)n3)c(=O)oc2cc1O | 20.6338 | –
32 | O=C(CCl)NCCOc1ccc(Cl)cc1Cl | 8.2288 | –
33 | Oc1ccc(-c2nc(-c3ccc4oc5ccc(-c6[nH]c(-c7ccc(O)cc7)nc6-c6ccccc6)cc5c4c3)c(-c3ccccc3)[nH]2)cc1 | 21.6376 | –
34 | CC(Oc1ccc(NC(=O)c2cccs2)cc1)C(=O)c1ccc(Cl)cc1 (stereo unspecified) | 16.818 | –
35 | O=C(NC(c1ccccc1)c1ccc2cccnc2c1O)c1ccccc1 (stereo unspecified) | 59.5194 | 2650
36 | CCCCNc1nc(NC(C)(C)C)nc(NC(C)(C)C)n1 | 40.1594 | –
37 | COc1ccc(CNC(=O)c2cc3c(=O)n4ccccc4nc3n(CCc3ccccc3)c2=N)cc1 | 29.2402 | –
38 | Brc1ccc(Nc2nc3ccccc3nc2Nc2ccc(Br)cc2)cc1 | 6.7896 | –
39 | COc1ccc(CCn2c(=N)c(C(=O)NCc3cccnc3)cc3c(=O)n4cccc(C)c4nc32)cc1 | 4.0678 | –
40 | CC(=O)c1sc(NC(=O)Nc2ccc(C)cc2C)nc1C | 12.9136 | –
41 | COc1ccc(-c2cn3c(C(=O)Nc4ccccc4Cl)c(-c4ccccc4)c4c3n2CCCC4)cc1 | 1.628 | –
42 | Cl.Cn1c(=O)n(C)c2cc(CNCCNc3ccnc4cc(Cl)ccc34)ccc21 | 35.6028 | –
43 | Cc1cc(Nc2ccc(OCc3ccccc3)cc2)nc2cc(O)ccc12 | 36.4644 | –
44 | Cn1c(C(=O)c2cccc3ccccc23)nc2ccccc21 | -3.612 | –
45 | CCN(CC)CCNc1ccnc2cc3ccccc3cc12.O=P(O)(O)O | 12.0652 | –
46 | CCOc1ccc2nc(C)cc(Nc3ccc(N(C)C)cc3)c2c1.Cl | 13.9954 | –
47 | COc1ccc(Nc2cc(C)nc(NCc3ccccc3)n2)cc1 | 8.4962 | –
48 | N=c1c2ccccc2nnn1-c1cccc(C(F)(F)F)c1 | 20.848 | –

Row | SMILES | Growth Inhibition (Plasmodium falciparum [1]) [%] | IC50 (Plasmodium falciparum [2]) [nM]
49 | COc1cc(-c2nc(-c3ccc(Sc4ccccc4)cc3)c(-c3ccccc3)[nH]2)cc(OC)c1O | 10.5558 | –
50 | COc1ccc(C=C2SC(Nc3ccc(F)cc3)=NC2=O)c(OC)c1 | 32.1464 | –
51 | Oc1ccc2ccccc2c1CNc1nc2ccccc2[nH]1 | 8.4186 | –
52 | O=C(Nc1ccc(-c2nc3ccccc3[nH]2)cc1)c1ccc(Cl)c(Cl)c1 | 11.2736 | –
53 | O=C1c2ccc3c4c(ccc(c24)C(=O)N1CCCCO)C(=O)N(CCCCO)C3=O | 33.201 | –
54 | O=C(Nc1ccc(-c2nc3cc(NC(=O)c4ccc(Cl)cc4)ccc3[nH]2)cc1)c1ccc(Cl)cc1 | 18.844 | –
55 | OCCNc1nc(Nc2ccc(Cl)c(Cl)c2)nc2ccccc12 | 18.8816 | –
56 | OC(Cn1nnc2ccccc21)Cn1c2ccc(Br)cc2c2cc(Br)ccc21 (stereo unspecified) | 11.39 | –
57 | Nc1ccc(-c2nc3cc(Oc4ccc(Oc5ccc6[nH]c(-c7ccc(N)cc7)nc6c5)cc4)ccc3[nH]2)cc1 | 21.5644 | –
58 | Cc1ccccc1OCCSc1nc2ccc(NC(=O)c3cccs3)cc2s1 | 6.631 | –
59 | CCOC(=O)c1cnc2ccc(OC)cc2c1Nc1ccc(N2CCN(C)CC2)cc1 | 5.5888 | –
60 | Cc1cc(N(C)C)nc(Nc2ccc(NC(=O)Nc3ccccc3)cc2)n1 | 16.1034 | –
61 | COc1ccccc1C(=O)ON=C(N)Cc1cccc2ccccc12 | 8.274 | –
62 | CCOc1cc2c(cc1OCC)C(c1cc(Cl)ccc1O)NCC2 (stereo unspecified) | 24.0914 | –
63 | CN1C=C(c2ccc3ccccc3n2)C(c2c[nH]c3ccccc23)c2ccccc21 (stereo unspecified) | 12.6514 | –
64 | COc1ccccc1NC1=C(N2CCCCC2)C(=O)c2ccccc2C1=O | 50.0502 | 236
65 | COc1cc(-c2nc(-c3ccccc3)c(-c3ccccc3)[nH]2)cc(OC)c1O | 13.9122 | –
66 | Cc1ccc(-c2nc3ccccc3o2)cc1NCc1cc(Cc2ccccc2)ccc1O | 21.1902 | –
67 | Cc1ccc(Nc2nc(N)c3ccccc3n2)cc1Cl | 23.2734 | –
68 | CCc1ccc(CNCC(O)c2ccccc2)cc1.Cl (stereo unspecified) | 26.7 | –
69 | COc1ccc(C(O)(CCC(C)C)C(CN2CCOCC2)c2ccc(Cl)cc2)cc1.Cl (stereo unspecified) | 9.238 | –
70 | CSc1ccccc1C(=O)Nc1nc(-c2ccccn2)cs1 | 29.8315 | 4610
71 | Br.CCn1c2c(c(=N)c3c1CCC3)CCCC2 | -4.7115 | –
72 | O=C(Cc1ccccc1)NC(c1ccc(Cl)cc1)c1c(O)ccc2ccccc12 (stereo unspecified) | 13.3694 | –

Row | SMILES | Growth Inhibition (Plasmodium falciparum [1]) [%] | IC50 (Plasmodium falciparum [2]) [nM]
73 | COc1cc(CNCCc2ccc(Cl)cc2)cc(OC)c1O | 17.1102 | –
74 | Cc1ccc2c(C)nc(Nc3nc(C)cc(-c4ccccc4)n3)nc2c1 | -3.9148 | –
75 | c1ccc(CNc2nc(Nc3ccccc3)nc3ccccc23)cc1 | 12.3006 | –
76 | CCOc1ccc(Nc2ccnc3cc(Cl)ccc23)cc1 | 2.6298 | –
77 | Cc1cccc(N2C(=O)C3C(C2=O)C2(c4ccccc4)C(=O)C3(c3ccccc3)C(c3ccc4c(c3)OCO4)=C2c2ccc3c(c2)OCO3)c1 (stereo unspecified) | 6.488 | –
78 | Oc1ccc(Br)cc1CN1CCN(Cc2ccc(Cl)cc2)CC1 | 44.4912 | –
79 | Cc1ccc(F)cc1NC(=O)c1cc(Cl)ccc1Nc1ccccc1 | 10.2234 | –
80 | CCOc1ccc2nc(C)cc(Nc3ccc(Br)cc3)c2c1 | -8.7645 | –
81 | COc1cc2c3cc1Oc1c(OC)c(OC)cc4c1C(Cc1ccc(O)c(c1)Oc1ccc(cc1)CC3N(C)CC2)N(C)CC4.Cl (stereo unspecified) | 37.697 | –
82 | CCCCCCc1cc2cc(-c3nc4ccccc4[nH]3)c(=Nc3ccccc3C)oc2cc1O | 18.3094 | –
83 | Br.Cc1ccc(C)c(-c2csc(Nc3ccc(C)c(C)c3)n2)c1 | -6.2508 | –
84 | CCOc1c(Br)cc(C2C(C(=O)OC)=CN(C)C=C2C(=O)OC)cc1OC | 11.9416 | –
85 | COc1ccc2sc(N(Cc3cccnc3)C(=O)c3ccc(C#N)cc3)nc2c1 | -6.4226 | –
86 | CCOC(=O)c1cnc2ccc(OC)cc2c1NCc1ccccc1 | 11.9674 | –
87 | CCCn1c(=N)c(C(=O)NC2CCCCC2)cc2c(=O)n3cccc(C)c3nc21 | 2.4486 | –
88 | CCOC(=O)C1=CN(C)C=C(C(=O)OCC)C1c1cc(Br)c(OCC)c(OC)c1 | 20.4206 | –
89 | CC(C)(C)c1ccc(C2CC3=Nc4ccccc4N(C(=O)c4ccccc4Cl)C(c4ccc(F)cc4)C3=C(O)C2)cc1 (stereo unspecified) | 12.8628 | –
90 | CN1CCN(c2nc(Nc3ccc(O)cc3)nc3ccccc23)CC1.Cl | 11.7422 | –
91 | CCCCc1c(CCC)c(=N)c2ccccc2n1C.I | 1.3375 | –
92 | Nc1ccn([C@@H]2O[C@H](CO)[C@@H](O)[C@H]2O)c(=O)n1 [CYTIDINE] | 13.5248 | –
93 | O=C(Nc1cccc(C2=NCCN2)c1)Nc1cccc(C2=NCCN2)c1 [IMIDOCARB] | 24.1816 | –
